Test results: a melting point compilation (Tetko et al.; mined from patent text by program, amines drawn as free bases though some values may be those of a salt)

melting point | SMILES
200 to 202 °C | O=C(O)CCCNC1=NS(=O)(=O)c2ccccc21
143 °C | Cc1ccccc1C(CCC(=O)O)Oc1cc(OCc2ccsc2)ccc1C#N (stereo not drawn)
79 to 80 °C | C=CCc1ccc(OCCC(C)C)c2c(=O)cc(C(=O)O)oc12
172 to 176 °C | CC(C)(C)OC(=O)NCC1CCCc2ccc(C(=O)O)cc21 (stereo not drawn)
224 to 228 °C | Cc1cnc2c(NC(=O)c3c(Cl)cccc3Cl)cccc2c1-n1ccnc1
173 °C | N#CC1(C#N)C2C=CC(C2)C1(Cl)C(F)(F)F (stereo not drawn)
212 to 214 °C | CCOC(=O)NNc1cc(-c2ccc(OC)cc2)c(-c2ccc(OC)cc2)nn1
155 to 163 °C | O=C(O)c1cccc(Cc2c(-c3ccc(OC(F)F)c(OC4CC4)c3)[nH]c3cn[nH]c(=O)c23)c1
127 to 128 °C | COc1ccc(-c2nc(C(N)(C(F)(F)F)C(F)(F)F)[nH]c2-c2ccc(OC)cc2)cc1
165 to 166 °C | CN1c2ccc(Cl)cc2C(c2ccccc2[N+](=O)[O-])=Nc2cccnc21
190 to 192 °C | O=C(Nc1c(C(O)(C(F)(F)F)C(F)(F)F)ccc2ccccc12)c1cccc(F)c1
254 to 256 °C | O=c1oc2c(O)c(O)ccc2c2ccccc12
108 °C | N[C@@H]1C(=C2OCc3ccccc32)[C@@H]2C[C@H]1C(=C1OCc3ccccc31)[C@H]2N
151 to 154 °C | CC(=O)OC1CCC2(C)C(CCC3C4CCC(C(C)=O)C4(C)CC(=O)C32Cl)C1 (stereo not drawn)
142 to 144 °C | COc1c(NC(=O)c2ccc(-c3ccc(F)cc3)cc2)ccc2cc(CN3CCCC3)cnc12
213 to 216 °C | Cc1ccc(C)c(C(=O)Nc2ccc(C(=O)N3Cc4ccccc4Cc4ccccc43)cc2)c1
112 to 114 °C | COc1ccc2c(c1)C(=O)C(Cc1ccccn1)CO2 (stereo not drawn)
96.5 to 100 °C | CC(C)(C)CC(C)(CO)C(=O)O (stereo not drawn)
205 to 207 °C | O=S(=O)(Nc1ccc2c(OCc3coc(-c4ccc(C(F)(F)F)cc4)n3)cccc2c1)C(F)(F)F
109 to 110 °C | CCOC(=O)c1cn(CC)nc1O
140 to 142 °C | O=C(O)c1cc(F)cc(-c2cccc3cc(Cc4cccc(C(F)(F)F)c4)sc23)c1
168 to 170 °C | CCOC(=O)C1=C(C2CC2)Nc2n[nH]cc2C1c1cccc(C#N)c1Br (stereo not drawn)
92 to 95 °C | Cc1ccc(F)c(C(C)Oc2ccc3nc(NC(=O)NCCN4CCOCC4)sc3c2)c1F (stereo not drawn)
240 to 241 °C | O=C(O)Cn1c(-c2ccc(C(F)(F)F)cc2)nc2cccnc21

melting point | SMILES
164 to 165 °C | Cc1c(C(=O)Nc2ccc(N3CCN(CCO)CC3)c(C#N)c2)cnn1-c1ccc(F)c(F)c1
216 °C | CC1=C(C(=O)NC(C)(C)C)C(c2ccccc2Cl)C(C(=O)OC(C)C)=C(COCCCc2nc3ccccc3n2C)N1 (stereo not drawn)
257 to 259 °C | Cc1c(-c2ccc(F)cc2)oc2c(-c3ccc(F)cc3)c(-c3ccc(S(C)(=O)=O)cc3)nn12
165 to 167 °C | ON=Cc1ccc2c(c1)ncn2-c1cccc(CNCc2ccc(F)c(F)c2)c1
204 to 205 °C | Cc1c(C(F)(F)F)cnc(O)c1Cl
143 °C | CC(CCc1ccccc1)Nc1nc(Cl)nc(NS(C)(=O)=O)n1 (stereo not drawn)
199 to 200 °C | CCCCC[C@@H](CNC(=O)Nc1c(N2CCCC2)ncnc1N1CCCC1)c1cccc2c1OCO2
98.5 to 99.5 °C | CC(C)c1cn(C)cc(-c2cccc(C(F)(F)F)c2)c1=O
105 °C | COc1ccc(NC(=O)OCCCl)c(OC)c1NC(=O)OCCCl
206 to 207 °C | O=C(O)c1cc2c3ccccc3n(-c3ccccc3)c2s1
121 to 123 °C | OCC=Cc1ccc(-c2ccc(OC(F)(F)F)cc2)cc1
187 to 188 °C | COc1cccc(NC(=O)c2cc(-c3ccc(F)cc3F)ccc2O)c1
190 to 192 °C | COCCN(C)Cc1c(-c2ccc([N+](=O)[O-])cc2)sc2c1c(=O)n(-c1ccc3c(c1)OCO3)c(=O)n2Cc1c(F)cccc1F
179 to 181 °C | COP(=O)(Cc1c(Cl)c(Cl)c(CP(=O)(OC)OC)c(Cl)c1Cl)OC
319 to 320 °C | COc1ccc(OC)n2nc(S(=O)(=O)Nc3c(F)cccc3F)nc12
156 to 157 °C | CCOC(=O)C1CSC(c2cc3cccc(NS(=O)(=O)c4cccs4)c3[nH]2)=N1 (stereo not drawn)
174 to 175 °C | Cc1ccc(COc2cccnc2NC(=N)Nc2ccc(Cl)cc2)cc1
206 °C | CCOC(=O)c1c(C)c(C#N)c(N)c(C#N)c1C
198 to 204 °C | O=[N+]([O-])c1cnc2ccc(-c3ccccc3)cc2c1Nc1ccccc1Br
241 to 242 °C | O=C1c2ccccc2S(=O)(=O)c2cc(C3=NCCN3)ccc21
157 to 158 °C | COc1ccc(-c2nc(SC)[nH]c2-c2ccc(OC)cc2)cc1
123 to 125 °C | O=c1c2ccc(Cl)cc2ncn1CCCCn1ccnc1
141 to 142 °C | O=C1OC(=O)c2c(Sc3ccccc3)c(Sc3ccccc3)c(Sc3ccccc3)c(Sc3ccccc3)c21
113 to 114 °C | CC(=O)OCC1OC(SCC=Cc2ccccc2)C(OC(C)=O)C(OC(C)=O)C1OC(C)=O (stereo not drawn)

melting point | SMILES
121 to 123 °C | CC(C)(C)OC(=O)Nc1cccc(C2(O)COC2)c1
118 to 122 °C | CCC(C)OC(=O)N1CCC(c2nc3cc(-c4ccc(-n5cnnn5)cc4F)ccc3o2)CC1 (stereo not drawn)
53 to 58 °C | NCCON=C(CCCCCCNC(=NS(=O)(=O)c1ccc(Cl)cc1)N1CC(c2ccccc2)C(c2ccc(Cl)cc2)=N1)c1ccc(C(F)(F)F)cc1 (stereo not drawn)
148 to 149 °C | CCOCC1Cc2cc(S(N)(=O)=O)c(Cl)c(Cl)c2O1 (stereo not drawn)
42 to 44 °C | CCCCCCNC(=S)NN=C(CCCCl)c1ccccc1
320 to 322 °C | Cc1nc(-c2ccncn2)cc(=O)[nH]1
159 °C | COc1ccc(C(=O)C2C(Cl)=CC=CC2(C)Cl)cc1Br (stereo not drawn)
85 to 87 °C | CCCCc1oc2ccc(C#N)cc2c1C(=O)c1ccc(OCCCN(CCCC)CCCC)cc1
162 to 164 °C | NC(=O)c1ncc(Cl)cc1F
128 to 129 °C | CCC1(CC)COP(=O)(Cc2ccc(N)cc2)OC1
205 to 208 °C | Cn1c(Cl)c(Cl)c2cnc(NC(=O)c3ccc([C@](C)(O)CO)cc3)cc21
192 to 194 °C | Cc1cc(Br)ccc1C(CO)NC(=O)c1c(Cl)cncc1Cl (stereo not drawn)
213 to 214 °C | Cc1ccc2c(=O)c(C(=O)O)cn(CCOC=O)c2n1
80 °C | CCCCc1c(C(=O)c2ccc(OCCCN(CCCC)CCCC)cc2)[nH]c2ccc([N+](=O)[O-])cc12
163 to 165 °C | Cc1oc(-c2ccccc2)nc1CC#Cc1ccc(CC(C(=O)O)c2ccc(-c3ccccc3)cc2)cc1 (stereo not drawn)
109 to 111 °C | CC(=O)NC(C)c1ccc(CN2CCN(c3cccc(F)n3)CC2)cc1 (stereo not drawn)
94 to 96 °C | COc1nc2cc(Cl)cc(I)c2nc1OC
215 °C | CC(=O)Nc1ncc(Cc2ccc(Cl)cc2)c(N)n1
177 to 179 °C | CCN[C@H]1C[C@H](CCCOCCOC)S(=O)(=O)c2sc(S(N)(=O)=O)cc21 (relative stereo)
78 to 80 °C | CCOC(C)O[C@H]1C(=O)N[C@H]1c1ccccc1 (stereo partly drawn)
150 °C | CCCCCCCCCC(C)(C)c1cc(-c2cc3ccc(C(=O)O)cc3o2)ccc1OC
167 to 169 °C | O=C1NCC=NN1c1cc(Cl)c(Cc2ccc(C(O)c3ccc(Cl)nc3)cc2)c(Br)c1 (stereo not drawn)
163 to 165 °C | COC(=O)C(CCSC)N(C(=O)OC(C)(C)C)C(=O)c1ccc(N)c(OC)c1 (stereo not drawn)
77 to 78 °C | CC(C)Oc1ccc(CCCOc2cc(CCC(=O)O)n(C)n2)c(Oc2ncc(Cl)cc2Cl)c1

melting point | SMILES
186 to 188 °C | O=C(Nc1cccc(F)c1)NC1CCN(S(=O)(=O)c2ccccc2)CC1
150 to 156 °C | COCC(C)NC1=NS(=O)(=O)c2cc(Cl)cnc2N1 (stereo not drawn)
218 to 220 °C | COc1c(O)c(C)c2c(c1OC)Nc1ccccc1S2
135 to 138 °C | CN(C)c1cc(Oc2cccc(C(F)(F)F)c2)nc(C(=O)Nc2ccccc2)c1
96 to 98.5 °C | CN(C)CCCC1(O)c2ccccc2OC12CCCCCC2 (stereo not drawn)
97 to 98 °C | O=C(O)C(=O)c1ccc(OCc2ccccc2)cc1
117 to 118 °C | CN(C(=O)c1ccc2nonc2c1)C1CC=C(F)CC1 (stereo not drawn)
139 to 140 °C | CC(C)(S)C(=O)N[C@@H](CS)C(=O)O
100 to 101 °C | O=C1c2ccccc2S(=O)(=O)N1CSc1nnc(SCCN2CCCCC2)s1
146 to 148 °C | CCCCn1c(=O)c2cc(C(=O)OCC)cn2c2ccccc21
108 to 109 °C | Cc1ccccc1Sc1cccc2c1OC(=O)C2
205 °C | CNc1nc(N)c(SC)c(Cl)n1
208 °C | O=C(O)c1ccccc1NCc1ccncc1
224 to 226 °C | CCOC(=O)c1[nH]c2ccc(Cl)c(F)c2c1S(=O)(=O)c1cc(C)cc(C)c1
180 to 181 °C | COc1ccc2c(c1)C(C(=O)Nc1c(C(C)C)cccc1C(C)C)c1cccnc1CO2 (stereo not drawn)
215 to 217 °C | Cc1ccccc1-c1cn2c(n1)-c1ccccc1Nc1ncccc1-2
123 to 124 °C | CC(=O)Nc1ccc(SCC(OS(C)(=O)=O)C(C)(C)C)cc1 (stereo not drawn)
155 °C | C[C@H]1CCCC[C@H]1Nc1c(C(N)=O)cnn2cccc12
142 to 144 °C | O=C1OCCCC1=Cc1ccccc1OCC(O)CN1CCC(c2ccc3ccccc3c2)CC1 (stereo not drawn)
186 to 188 °C | COc1cc2ncnc(N3CCC(C(C)(O)CN4CCC(C)NS4(=O)=O)CC3)c2cc1OC (stereo not drawn)
76 to 77 °C | N#CC=Cc1ccc(F)c(Cl)c1F
103 to 105 °C | C[Si](C)(C)C#CCn1nc(-c2ccc(F)c(Br)c2)ncc1=O

SMILES | melting point
Cc1ccc2c(C(=O)NC(C)C)c(NC(=O)c3cc(C(F)(F)F)nn3-c3ncccc3Cl)c(C)cc2n1 | > 240 °C
CC(Cc1ccc(OCCCCO)cc1)NCC(O)c1cccc(C(F)(F)F)c1 (stereo not drawn) | 69 to 76 °C
O=C(CCc1ccc(Cl)cc1Cl)NC1N=C(c2ccccc2)c2ccccc2-n2ccnc21 (stereo not drawn) | 183 to 184 °C
COc1ccc(N2CCN(C)[C@@H]3Cc4ccccc4[C@H]32)c(CO)c1 (relative stereo) | 179 to 183 °C
